{"source": "patent US4727090A", "about": "“Process for preparing and therapeutical applications of the 2,4,6-triiodophenol” (Bislak, S.A., priority 1983, dated 1988)", "key": {"[1]": {"tested_on": "acetic acid induced pullings", "experiment": "Writhing syndrome test (acetic acid)", "assay_type": "in vivo, mice", "settings": "500 mg/kg oral; for inhibition at 500 mg/kg: Mus musculus, po, read-out: % INHIB. (pullings)", "procedure": "Irritant substance: acetic acid at 0.5% injected via intraperitoneal.\nFoundation of the method consists in provoking a dolorous syndrome by pulling and torsion of the stomach and the hind legs of the animals.\nThese pullings or stretchings are calculated during a certain time, using it as the measure of the provoked ache.\nMice of about 22 g by weight were used, animals were left under abstinence during 24 hours before carrying out the test.\nMice were previously selected as to each individual response to the dolorous stimulus provoked by an intraperitoneal injection of 0.2 ml of an acetic acid aqueous solution at the 0.5%. Valid animals for realizing the test are those which respond within a margin of 15-35 pullings in about 5 to 15 minutes after the injection. The remaining animals are not useful.\nMedication is realized via oral with the help of an esophageal cannula.\nWhite lot: Administration of 0.1 ml of CMC 1% for each 10 g of corporal weight.\n2,4,6-triiodophenol lot: Administration of 10 mg/kg of the product, suspended in CMC of 1%.\nAspirin-Lysin lot (Solusprin): Administration of 500 mg/kg aspirin, dissolved at 1%.\nAfter medication, one has to wait 20 minutes for injecting 0.2 ml acetic acid of 0.5% via intraperitoneal, calculating the number of pullings during 5 minutes. […]\nThe test was carried out in 9 mice in each lot."}, "[2]": {"tested_on": "sensation of pain on hot plate", "experiment": "Hot plate test at 56° C", "assay_type": "in vivo, mice", "settings": "500 mg/kg injection", "procedure": "(A) To control analgesic activity we use mice of about 25 g by weight, in groups of ten mice, subjected to the test of the hot plate at 56° C.\nAnimals receive a medicamentous injection of 0.1 ml of solubilized aspirin with sodium bicarbonate, or of solubilized triiodophenol at pH 9'5.\nControls receive physiologic serum.\nThe time in which the animals indicate sensation of pain is measured with a chronometer.\nIn the hereunder table the results testing animals, 15 min. and 30 min. after the medication. Average values are taken of each group."}, "[3]": {"tested_on": "granuloma formed around cotton implant", "experiment": "Cotton implant granuloma test", "assay_type": "in vivo, rats", "settings": "72 hours", "procedure": "(B) To a group of 10 rats of about 200-225 g is implanted at the dorsal zone, subcutaneously, balled cotton (about 9 mg) impregnated and afterwards dried with a solution of medicamentous substance and which amount is known.\nWe use as reference Dexamethasone and controls without medicament.\nAfter 72 hours, once the animal is sacrificed, the granuloma formed around the implant is extracted and weighed, after drying at 100° C.\nThe antiinflammatory reduces the weight of the granuloma."}, "[4]": {"tested_on": "Carrageenin leg oedema", "experiment": "Carrageenin leg oedema test", "assay_type": "in vivo, white rats", "settings": "Rattus norvegicus; 10 mg/kg oral, 4 hours", "procedure": "(A) The antiinflammatory action is shown in white rats, of a weight of about 200-225 g, having provoked in these animals the leg oedema by means of an injection in the sole of the foot of 0.1 ml of a 1% Carrageenin solution.\nOne control group of ten animals, another the same medicated with indomethacin via oral at 30 mg/kg, in suspension in a carboxymethylcellulose solution, another group of ten rats, medicated with triiodophenol in oral solution at 5 mg/kg, another group medicated with triioodophenol at 1 mg/kg, injected via intramuscular and another group medicated with triiodophenol at 0.5 mg/kg via intramuscular. All medications are administered simultaneously to the formation of Edema.\nThe volume of the same is measured at 0 hours, 3 hours, 4 hours, 5 hours and 6 hours with a mercury Plestimograph."}, "[5]": {"tested_on": "Carrageenin leg oedema", "experiment": "Carrageenin leg oedema test", "assay_type": "in vivo, white rats", "settings": "Rattus norvegicus, 10 mg/kg oral"}}, "note": "Like-named read-outs stand apart in the source and are kept apart here."}
{"smiles": "CC(=O)Oc1ccccc1C(=O)O", "note": "[ASPIRIN, reference compound]", "values": [{"measurement": "Total No. pullings", "setting": "[1]; 20'", "result": 12}, {"measurement": "Total No. pullings", "setting": "[1]; 30'", "result": 6}, {"measurement": "Total No. pullings", "setting": "[1]; 100'", "result": 6}, {"measurement": "inhibition at 500 mg/kg", "setting": "[1]; 20'", "result": 90, "unit": "%"}, {"measurement": "inhibition at 500 mg/kg", "setting": "[1]; 30'", "result": 89.2, "unit": "%"}]}
{"smiles": "CC(=O)Oc1ccccc1C(=O)O", "note": "[Acetyl salicylic acid, reference compound]", "values": [{"measurement": "Time to sensation of pain", "setting": "[2]; 15 minutes", "result": "4,3 sec."}, {"measurement": "Time to sensation of pain", "setting": "[2]; 30 minutes", "result": "6,8 sec."}]}
{"smiles": "C[C@@H]1C[C@H]2[C@@H]3CCC4=CC(=O)C=C[C@]4(C)[C@@]3(F)[C@@H](O)C[C@]2(C)[C@@]1(O)C(=O)CO", "note": "[Dexamethansone, reference compound]", "values": [{"measurement": "% Reduction of the granuloma (Average)", "setting": "[3]; 10 micrograms per implant", "result": 16, "unit": "%"}, {"measurement": "% Reduction of the granuloma (Average)", "setting": "[3]; 20 micrograms per implant", "result": 28, "unit": "%"}, {"measurement": "% Reduction of the granuloma (Average)", "setting": "[3]; 40 micrograms per implant", "result": 30, "unit": "%"}]}
{"smiles": "COc1ccc2c(c1)c(CC(=O)O)c(C)n2C(=O)c1ccc(Cl)cc1", "note": "[Indomethacin]", "values": [{"measurement": "inhibition at 10 mg/kg", "setting": "[4]", "result": 63, "unit": "%"}, {"measurement": "inhibition at 10 mg/kg", "setting": "[5]; 3 hours", "result": 59, "unit": "%"}, {"measurement": "inhibition at 10 mg/kg", "setting": "[5]; 5 hours", "result": 69, "unit": "%"}, {"measurement": "inhibition at 10 mg/kg", "setting": "[5]; 6 hours", "result": 73, "unit": "%"}]}
